Assay results published in patent US10905651B1, “Zeinmersome nanocarriers for drug delivery to the liver” (King Abdulaziz University, priority 2020, dated 2021).

Key:
[1] = In vitro diffusion studies (Franz diffusion cell); type: physicochemical; settings: within a 4-hour time period; 0.1 μm nylon membrane, buffer pH 7.0 with Tween 20 0.5% w/v
Protocol: The formula characterization was assessed by examining its diffusion pattern. An automated Franz diffusion cell apparatus (MicroettePlus; Hanson Research, Chatsworth, Calif., US) with a diffusion area of 1.76 cm^2 was utilized to examine the diffusion of OM from the prepared formula as described previously (Ahmed et al., 2019. Internat J Pharmaceu 570: 118657). A 0.1 μm nylon diffusion membrane and a buffer (pH 7.0) containing Tween 20 (0.5% w/v) were used, and this was stirred at 400 rpm. The aliquots were analyzed for OM concentration by HPLC as previously reported. The samples were collected at 0.5, 1, 2, 4, 8, 12, 24 and 48 h.

[2] = tested on: TAA-induced hepatic fibrosis rats; assay: Inflammatory and oxidative markers in liver homogenate of TAA-induced hepatic fibrosis rats; type: in vivo, rat; settings: two months; for IL-6 level in liver homogenate (reversal of TAA-induced increase): FIG. 5A; for TNF-α level in liver homogenate (reversal of TAA-induced increase): FIG. 5B; for MDA level in liver homogenate (reversal of TAA-induced increase): FIG. 6A; for GSH level in liver homogenate (reversal of TAA-induced decrease): FIG. 6B
Protocol: Rats were given freshly prepared TAA (0.9% w/v in saline solution, 200 mg/kg, ip) twice weekly for eight weeks. A normal control (NC) group of rats (n=8) received injections of the vehicle twice weekly for eight weeks. The TAA-treated rats were randomly assigned to groups (n=8), including a test group for each dosage of a free drug (not encapsulated in ZMS), each dosage of zeinmersomes encapsulating the drug, and a positive control group (PC) having hepatic fibrosis but receiving a vehicle-only treatment instead of a drug treatment. Five groups of rats (n=8) were given freshly prepared TAA (0.9% w/v in saline solution, 200 mg/kg, ip) twice weekly for eight weeks and a normal control (NC) group received vehicle injections, as described in Example 4. The five TAA groups included a positive control group (PC, untreated) and four groups treated with low and high doses (2 and 4 mg/kg/day) of OM as raw drug (OL & OH, respectively) and the same low and high doses (2 and 4 mg/kg/day) of OM formulated as zeinmersomes (OLZMS & OHZMS, respectively). The OM standard drug was suspended in distilled water containing 0.25% w/v carboxymethyl cellulose. The doses were given by oral gavage once daily for two months. […] At the end of treatment duration, blood samples were withdrawn from the retro-orbital plexus of the rats under light ether anesthesia. Plasma was separated and kept at −80° C. until analysis. Then, the rats were sacrificed by cervical dislocation under ether anesthesia. Liver and duodenum were isolated and parts of each were kept in 10% formalin-saline for histopathological examination. Other portions of liver tissue were homogenized. The plasma levels of ALT and AST and the homogenate levels of IL-6, reduced glutathione (GSH), TNF-α, malondialdehyde (MDA), and protein content were measured using ELISA kits (MyBioSource, Inc. CA, USA). In addition, the concentrations of olmesartan in plasma and liver homogenate were measured by HPLC/MS. A part of the liver of each animal was rapidly dissected out, washed, and homogenized in phosphate-buffered saline (0.01M PBS, pH 7.4) using a TissueLyser II (Qiagen; Venlo, Netherlands) at 4° C. to produce a 10% homogenate. The homogenates were centrifugated at 10000 rpm for 15 min at 4° C. and the supernatant was kept at −80° C. till time of analysis. The levels of TNF-α, IL-6, malondialdehyde (MDA), and reduced glutathione (GSH) were measured by the ELISA kits using a micro plate reader (Versa Max, Molecular Devices). The protein content in the liver homogenate was determined by using a colorimetric kit based on Bradford method (Bradford 1976) and the levels of IL-6, TNF-α, GSH, and MDA were expressed/mg protein. The IL-6 level was measured by using the competitive enzyme immunoassay technique utilizing a polyclonal anti-IL-6 antibody and an IL-6-HRP conjugate. The assay sample and buffer were incubated together with IL-6-HRP conjugate in pre-coated plate for one hour. After washing, the wells were then incubated with a substrate for HRP enzyme. The product of the enzyme-substrate reaction formed a blue colored complex. Finally, a stop solution was added to stop the reaction, which then turned the solution yellow. Absorbance was read at 450 nm in a microplate reader. The TNF-α level was measured by using the principle of double antibody sandwich ELISA technique is used. Anti-TNF-α antibody was pre-coated on the wells. Add biotin labeled anti-TNF-α antibodies to combine with the antigens on immune complexes. Avidin-Biotin-Peroxidase Complex was added, and unbound conjugates were washed away with wash buffer. TMB substrates were used to visualize HRP enzymatic reaction producing a blue color product that changed into yellow after adding acidic stop solution. The density of yellow is proportional to TNF-α amount of sample captured in plate. Absorbance was read at 450 nm. The GSH level was measured by using the principle of double antibody sandwich ELISA technique. Anti-GSH antibody was pre-coated on the wells. […]

[3] = tested on: methotrexate-induced intestinal mucositis; settings: pretreatment with 0.5, 1.0, or 5.0 mg/kg; cited from earlier work

CCCc1nc(C(C)(C)O)c(C(=O)OCc2oc(=O)oc2C)n1Cc1ccc(-c2ccccc2-c2nnn[nH]2)cc1 [OM, (5-methyl-2-oxo-1,3-dioxol-4-yl)methyl 5-(2-hydroxypropan-2-yl)-2-propyl-3-[[4-[2-(2H-tetrazol-5-yl)phenyl]phenyl]methyl]imidazole-4-carboxylate]
diffusion of OM (percentage permeated) [1]: ~97.5±13.07% | IL-6 level in liver homogenate (reversal of TAA-induced increase) ([2]; high dose 4 mg/kg/day oral): significantly reversed | TNF-α level in liver homogenate (reversal of TAA-induced increase) ([2]; high dose 4 mg/kg/day oral): significantly reversed | MDA level in liver homogenate (reversal of TAA-induced increase) ([2]; high dose 4 mg/kg/day oral): significantly reversed | GSH level in liver homogenate (reversal of TAA-induced decrease) ([2]; high dose 4 mg/kg/day oral): significantly reversed | IL-6 level in liver homogenate (reversal of TAA-induced increase) ([2]; low dose 2 mg/kg/day oral): All treatments except for OL significantly reversed | TNF-α level in liver homogenate (reversal of TAA-induced increase) ([2]; low dose 2 mg/kg/day oral): All treatments except for OL significantly reversed | MDA level in liver homogenate (reversal of TAA-induced increase) ([2]; low dose 2 mg/kg/day oral): All treatments except for OL significantly reversed | GSH level in liver homogenate (reversal of TAA-induced decrease) ([2]; low dose 2 mg/kg/day oral): All treatments except for OL significantly reversed | enteropathy (diarrhea, weight loss, decreased sucrose activity) [3]: caused enteropathy | inflammatory infiltration, vascular congestion, ulcerations, hemorrhagic areas; myeloperoxidase, IL-1β and TNF-α levels [3]: decreased
